Experimental data from article doi:10.1101/2020.01.14.906396v1 (biorxiv, 2020).

Target: T1, K2P2.1 (TREK-1, KCNK2) (Homo sapiens, UniProt O95069)
T1 sequence (O95069 1-426): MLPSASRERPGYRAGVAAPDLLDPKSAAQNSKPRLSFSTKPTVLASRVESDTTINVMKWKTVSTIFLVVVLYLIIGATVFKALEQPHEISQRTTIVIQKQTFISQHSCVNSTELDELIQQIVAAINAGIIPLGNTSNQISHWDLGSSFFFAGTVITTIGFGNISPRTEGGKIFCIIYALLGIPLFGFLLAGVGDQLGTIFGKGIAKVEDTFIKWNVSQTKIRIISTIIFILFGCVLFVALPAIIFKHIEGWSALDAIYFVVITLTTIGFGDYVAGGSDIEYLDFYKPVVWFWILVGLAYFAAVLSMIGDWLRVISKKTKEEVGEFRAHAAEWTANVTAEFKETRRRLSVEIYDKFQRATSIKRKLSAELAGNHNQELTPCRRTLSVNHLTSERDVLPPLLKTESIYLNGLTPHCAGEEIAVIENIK
Assay: two-electrode voltage clamp, Xenopus oocytes
Type: cell-based

`Cc1ccc(C(C)C)cc1O` [carvacrol, 2-methyl-5-(propan-2-yl) phenol] and `Cc1ccc(C(C)C)c(O)c1` [thymol] are within error of each other in EC50: 200 ± 60 µM for the first, 430 ± 240 µM for the second.

`CC(C)[C@@H]1CC[C@@H](C)C[C@H]1O` [menthol] gave an EC50 of 3800 ± 1000 µM.
